What was measured:
[1] = tested on: female Sprague Dawley rats; assay: Uterine wet weight in the post-menopausal (ovariectomized rat) model, 4 days of oral dosing; format: in vivo; conditions: % increase versus the ovariectomized controls, * p<0.05
Experimental: (§1) In the examples illustrating the methods, a post-menopausal model was used in which effects of different treatments upon circulating lipids were determined.
(§2) Seventy-five day old female Sprague Dawley rats (weight range of 200 to 225g) are obtained from Charles River Laboratories (Portage, MI). The animals are either bilaterally ovariectomized (OVX) or exposed to a Sham surgical procedure at Charles River Laboratories, and then shipped after one week. Upon arrival, they are housed in metal hanging cages in groups of 3 or 4 per cage and have ad libitum access to food (calcium content approximately 0.5%) and water for one week. Room temperature is maintained at 22.2° ± 1.7° C with a minimum relative humidity of 40%. The photoperiod in the room is 12 hours light and 12 hours dark.
(§3) Dosing Regimen Tissue Collection. After a one week acclimation period (therefore, two weeks post-OVX) daily dosing with test compound is initiated. 17α-ethynyl estradiol or the test compound are given orally, unless otherwise stated, as a suspension in 1% carboxymethylcellulose or dissolved in 20% cyclodextrin. Animals are dosed daily for 4 days. Following the dosing regimen, animals are weighed and anesthetized with a ketamine: Xylazine (2:1, V:V) mixture and a blood sample is collected by cardiac puncture. The animals are then sacrificed by asphyxiation with CO2, the uterus is removed through a midline incision, and a wet uterine weight is determined.

[2] = tested on: Uterine Eosinophil Peroxidase (EPO); assay: Uterine Eosinophil Peroxidase (EPO) Assay in ovariectomized rats; format: in vivo; design: unit not given here; conditions: Vmaximum, * p<0.05
Excerpt: as §2, §3
Uterine Eosinophil Peroxidase (EPO) Assay. Uteri are kept at 4° C until time of enzymatic analysis. The uteri are then homogenized in 50 volumes of 50 mM Tris buffer (pH - 8.0) containing 0.005% Triton X-100. Upon addition of 0.01% hydrogen peroxide and 10 mM o-phenylenediamine (final concentrations) in Tris buffer, increase in absorbance is monitored for one minute at 450 nm. The presence of eosonophils in the uterus is an indication of estrogenic activity of a compound. The maximal velocity of a 15 second interval is determined over the initial, linear portion of the reaction curve.

[3] = tested on: Serum cholesterol; assay: Serum cholesterol analysis in ovariectomized rats; format: in vivo; conditions: decrease versus ovariectomized controls, * p<0.05
Experimental: as §1, §2, §3
Cholesterol Analysis. Blood samples are allowed to clot at ambient temperature for 2 hours, and serum is obtained following centrifugation for 10 minutes at 3000 rpm. Serum cholesterol is determined using a Boehringer Mannheim Diagnostics high performance cholesterol assay. Briefly, the cholesterol is oxidized to cholest-4-en-3-one and hydrogen peroxide. The hydrogen peroxide is then reacted with phenol and 4-aminophenazone in the presence of peroxidase to produce a p-quinone imine dye, which is read spectrophotemetrically at 500 nm. Cholesterol concentration is then calculated against a standard curve.

[4] = tested on: MCF-7 breast adenocarcinoma cells (ATCC HTB 22); assay: MCF-7 Proliferation Assay (tritiated thymidine uptake); format: cell-based; conditions: MCF-7 cells, 48 hours with drug, tritiated thymidine pulse 4 hours
Experimental: MCF-7 Proliferation Assay
MCF-7 breast adenocarcinoma cells (ATCC HTB 22) were maintained in MEM (minimal essential medium, phenol red-free, Sigma, St. Louis, MO) supplemented with 10% fetal bovine serum (FBS) (V/V), L-glutamine (2 mM), sodium pyruvate (1 mM), HEPES {(N-[2-hydroxyethyl]piperazine-N'-[2-ethanesulfonic acid] 10 mM}, non-essential amino acids and bovine insulin (1 ug/mL) (maintenance medium). Ten days prior to assay, MCF-7 cells were switched to maintenance medium supplemented with 10% dextran coated charcoal stripped fetal bovine serum (DCC-FBS) assay medium) in place of 10% FBS to deplete internal stores of steroids. MCF-7 cells were removed from maintenance flasks using cell dissociation medium [Ca++/Mg++ free HBSS (phenol red-free) supplemented with 10 mM HEPES and 2 mM EDTA]. Cells were washed twice with assay medium and adjusted to 80,000 cells/mL. Approximately […] (8,000 cells) were added to flat-bottom microculture wells (Costar 3596) and incubated at 37° C in a 5% CO2 humidified incubator for 48 hours to allow for cell adherence and equilibration after transfer. Serial dilutions of drugs or DMSO as a diluent control were prepared in assay medium and […] to triplicate microcultures followed by […] assay medium for a final volume of […]. After an additional 48 hours at 37° C in a 5% CO2 humidified incubator, microcultures were pulsed with tritiated thymidine (1 µCi/well) for 4 hours. Cultures were terminated by freezing at -70° C for 24 hours followed by thawing and harvesting of microcultures using a Skatron Semiautomatic Cell Harvester. Samples were counted by liquid scintillation using a Wallac BetaPlace β counter. The compounds of formula I are active and potent in inhibiting the tumor cell growth, see: Table 2.

| SMILES | Uterine Wt. (% Inc.) ([1]; dose printed as 0. mg/kg PO) | Uterine EPO (Vmax) ([2]; dose printed as 0. mg/kg PO) | Serum Cholesterol (% Dec.) ([3]; dose printed as 0. mg/kg PO) | Uterine Wt. (% Inc.) ([1]; 0.1 mg/kg PO) | Uterine Wt. (% Inc.) ([1]; 1 mg/kg PO) | Uterine Wt. (% Inc.) ([1]; 10 mg/kg PO) | Uterine EPO (Vmax) ([2]; 0.1 mg/kg PO) | Uterine EPO (Vmax) ([2]; 1 mg/kg PO) | Uterine EPO (Vmax) ([2]; 10 mg/kg PO) | Serum Cholesterol (% Dec.) ([3]; 0.1 mg/kg PO) | Serum Cholesterol (% Dec.) ([3]; 1 mg/kg PO) | Serum Cholesterol (% Dec.) ([3]; 10 mg/kg PO) | IC50 ([4]; Homo sapiens, MCF7) | IC50 [4] |
| --- | --- | --- | --- | --- | --- | --- | --- | --- | --- | --- | --- | --- | --- | --- |
| C#C[C@]1(O)CC[C@H]2[C@@H]3CCc4cc(O)ccc4[C@H]3CC[C@@]21C [EE2, 17-α-Ethynyl-estradiol, reference compound] | 171.2* % | 142.4* | 85.1* % | – | – | – | – | – | – | – | – | – | – | – |
| COC(=O)c1ccc2c(C(=O)c3ccc(OCCN4CCCCC4)cc3)c(-c3ccc(O)cc3)sc2c1.Cl [Example 1, [2-(4-Hydroxyphenyl)-6-methoxycarbonylbenzo[b]thien-3-yl][4-[2-(1-piperidinyl)ethoxy]phenyl]methanone Hydrochloride] | – | – | – | 46.9* % | 19.1% | 45.2* % | 4.5 | 4.8 | 7.5 | -8.6% | 42.5* % | 56.1* % | 40 nM | – |
| CCCCOC(=O)c1ccc2c(C(=O)c3ccc(OCCN4CCCCC4)cc3)c(-c3ccc(O)cc3)sc2c1 [Example 2, [2-(4-Hydroxyphenyl)-6-n-butoxycarbonylbenzo[b]thien-3-yl][4-[2-(1-piperidinyl)ethoxy]phenyl]methanone] | – | – | – | 19.4% | 16.8% | 52.5* % | 2.4 | 0.0 | 4.8 | -1.2% | 26.7% | 55.6* % | 45 nM | – |
| CC(C)COC(=O)c1ccc2c(C(=O)c3ccc(OCCN4CCCCC4)cc3)c(-c3ccc(O)cc3)sc2c1 [Example 3] | – | – | – | 11.8% | 21.7% | 47.1* % | 3.3 | 3.3 | 4.8 | -2.4% | 8.7% | 58.0* % | – | 45 nM |
| Cl.O=C(O)c1ccc2c(C(=O)c3ccc(OCCN4CCCCC4)cc3)c(-c3ccc(O)cc3)sc2c1 [Example 4, [2-(4-Hydroxyphenyl)-6-carboxybenzo[b]thien-3-yl][4-[2-(1-piperidinyl)ethoxy]phenyl]methanone Hydrochloride] | – | – | – | 18.8% | 27.2% | 29.6* % | 3.3 | 3.0 | 3.6 | 0.6% | 10.4% | 44.9* % | – | – |
| CC(=O)c1ccc2c(C(=O)c3ccc(OCCN4CCCCC4)cc3)c(-c3ccc(O)cc3)sc2c1 [Example 5, [2-(4-Hydroxyphenyl)-6-acetylbenzo[b]thien-3-yl][4-[2-(1-piperidinyl)ethoxy]phenyl]methanone] | – | – | – | 18.8% | 51.8* % | 69.4* % | 1.2 | 2.1 | 5.4 | -6.3% | 20.4% | 45.4* % | 60 nM | – |
| C#Cc1ccc2c(C(=O)c3ccc(OCCN4CCCCC4)cc3)c(-c3ccc(O)cc3)sc2c1 [Example 6, [2-(4-Hydroxyphenyl)-6-ethynylbenzo[b]thien-3-yl][4-[2-(1-piperidinyl)ethoxy]phenyl]methanone] | – | – | – | 14.3% | 27.8% | 22.5% | 3.9 | 4.8 | 4.8 | 39.4* % | 58.7* % | 65.8* % | 20 nM | – |
